Measurements as given in patent US20240197871A1, “COMBINATION OF A CAR T CELL THERAPY AND AN IMMUNOMODULATORY COMPOUND FOR TREATMENT OF LYMPHOMA” (Juno Therapeutics, Inc., priority 2021, published 2024).

Columns and labels:
Ikaros = target: T1, Ikaros (Homo sapiens, UniProt Q13422+Q96SW2); experiment: Ikaros degradation in stimulated anti-CD19 CAR T cells (flow cytometry MFI); format: cell-based
T1 construct: analyzed by flow cytometry to assess intracellular levels of Ikaros and Aiolos in CAR+ T cells; endogenous in cells; host or cells: primary human CD4+ and CD8+ T cells from healthy donors, lentivirally transduced with an anti-CD19 CAR
T1 sequence (Q13422 whole entry): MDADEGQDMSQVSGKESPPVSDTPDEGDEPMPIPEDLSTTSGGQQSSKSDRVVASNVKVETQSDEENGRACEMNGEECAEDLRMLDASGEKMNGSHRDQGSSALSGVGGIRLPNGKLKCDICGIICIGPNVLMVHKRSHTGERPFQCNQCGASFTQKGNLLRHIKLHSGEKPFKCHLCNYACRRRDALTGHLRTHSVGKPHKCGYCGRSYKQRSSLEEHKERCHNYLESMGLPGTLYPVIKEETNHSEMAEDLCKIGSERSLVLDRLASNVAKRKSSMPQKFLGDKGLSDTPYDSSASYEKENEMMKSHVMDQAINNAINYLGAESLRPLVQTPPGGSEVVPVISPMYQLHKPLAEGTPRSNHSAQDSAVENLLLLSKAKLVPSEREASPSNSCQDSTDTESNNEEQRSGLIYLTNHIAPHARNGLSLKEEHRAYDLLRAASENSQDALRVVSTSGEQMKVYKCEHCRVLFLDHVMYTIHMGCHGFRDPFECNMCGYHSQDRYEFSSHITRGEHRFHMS
T1 sequence (Q96SW2 whole entry): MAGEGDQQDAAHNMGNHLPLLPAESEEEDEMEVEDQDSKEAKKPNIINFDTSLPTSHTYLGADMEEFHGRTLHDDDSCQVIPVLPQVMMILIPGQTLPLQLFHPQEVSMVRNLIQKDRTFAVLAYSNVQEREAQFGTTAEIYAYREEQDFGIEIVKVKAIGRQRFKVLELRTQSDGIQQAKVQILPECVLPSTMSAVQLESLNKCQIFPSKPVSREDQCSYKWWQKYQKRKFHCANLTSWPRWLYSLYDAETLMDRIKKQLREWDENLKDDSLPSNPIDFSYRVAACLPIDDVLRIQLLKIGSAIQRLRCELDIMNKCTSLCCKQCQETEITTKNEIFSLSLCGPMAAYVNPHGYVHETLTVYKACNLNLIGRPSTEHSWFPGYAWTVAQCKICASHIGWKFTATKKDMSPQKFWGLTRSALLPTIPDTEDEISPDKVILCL
T1 sequence (Q16531 whole entry partner): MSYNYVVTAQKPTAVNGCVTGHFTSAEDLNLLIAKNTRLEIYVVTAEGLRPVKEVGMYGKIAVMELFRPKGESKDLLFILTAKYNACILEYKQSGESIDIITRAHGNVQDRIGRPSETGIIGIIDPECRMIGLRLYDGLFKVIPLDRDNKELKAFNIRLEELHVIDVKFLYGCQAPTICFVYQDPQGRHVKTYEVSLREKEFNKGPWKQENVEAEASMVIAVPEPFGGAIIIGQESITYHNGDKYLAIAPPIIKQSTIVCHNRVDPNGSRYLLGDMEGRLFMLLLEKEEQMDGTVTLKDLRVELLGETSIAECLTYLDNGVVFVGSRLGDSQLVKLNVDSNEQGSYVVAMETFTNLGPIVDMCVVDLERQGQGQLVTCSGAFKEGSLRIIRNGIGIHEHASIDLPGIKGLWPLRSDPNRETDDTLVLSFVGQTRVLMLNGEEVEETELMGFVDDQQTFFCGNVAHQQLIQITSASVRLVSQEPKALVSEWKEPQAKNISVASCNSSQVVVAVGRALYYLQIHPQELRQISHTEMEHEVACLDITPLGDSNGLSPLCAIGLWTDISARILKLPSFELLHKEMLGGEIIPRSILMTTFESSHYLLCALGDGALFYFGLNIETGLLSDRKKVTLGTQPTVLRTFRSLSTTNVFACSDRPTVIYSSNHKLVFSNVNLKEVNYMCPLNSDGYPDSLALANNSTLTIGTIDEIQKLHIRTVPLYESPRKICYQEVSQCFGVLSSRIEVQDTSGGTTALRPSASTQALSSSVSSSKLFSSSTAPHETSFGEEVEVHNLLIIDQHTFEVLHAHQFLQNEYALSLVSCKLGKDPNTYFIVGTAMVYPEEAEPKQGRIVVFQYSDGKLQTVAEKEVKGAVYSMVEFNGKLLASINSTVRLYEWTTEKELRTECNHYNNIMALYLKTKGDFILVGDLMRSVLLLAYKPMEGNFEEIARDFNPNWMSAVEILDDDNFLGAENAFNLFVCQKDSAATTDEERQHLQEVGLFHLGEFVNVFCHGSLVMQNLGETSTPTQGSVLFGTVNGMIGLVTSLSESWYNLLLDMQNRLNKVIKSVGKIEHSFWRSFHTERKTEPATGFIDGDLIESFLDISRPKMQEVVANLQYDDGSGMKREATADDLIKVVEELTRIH
Source text: T cell compositions containing anti-CD19 CAR-expressing T cells were generated from leukapheresis samples from five healthy human adult donors by a process that included immunoaffinity-based selection of T cells by separately selecting CD4+ and CD8+ cells from the samples, resulting in two compositions enriched for CD4+ and CD8+ cells, respectively, per donor. Cells of the enriched CD4+ and CD8+ compositions were separately activated with anti-CD3/anti-CD28 beads and subjected to lentiviral transduction with a vector encoding an anti-CD19 CAR. The anti-CD19 CAR contained an anti-CD19 single-chain variable fragment (scFv) derived from a murine antibody (variable region derived from FMC63), an immunoglobulin-derived spacer, a transmembrane domain derived from CD28, a costimulatory region derived from 4-1BB, and a CD3-zeta intracellular signaling domain. The expression construct in the viral vector further contained sequences encoding a surrogate surface marker for CAR expression, which was separated from the CAR-encoding sequence by a T2A ribosome skip sequence. Transduced populations then were separately incubated in the presence of stimulating reagents for cell expansion. Expanded CD4+ and CD8+ cells were formulated and cryopreserved separately and stored.
Prior to use, the cryopreserved CD4+ and CD8+ engineered cell compositions were thawed and combined at approximately a 1:1 CD4:CD8 ratio for each donor. Cells of the combined composition were then stimulated at 37° C. with 5% CO2 for 24 hours with 30 µg/mL of a CAR-specific anti-idiotypic antibody (see, e.g., WO2018/023100).
Following incubation, the stimulated cells were stained with antibodies and analyzed by flow cytometry to assess intracellular levels of Ikaros and Aiolos in CAR+ T cells, as measured by median fluorescence intensity (MFI). MFI values for Ikaros and Aiolos were normalized and calculated as a percentage relative to vehicle control.

anti-CD19 CAR T cells = experiment: Cell cycle phase (EdU incorporation) of stimulated anti-CD19 CAR T cells; format: cell-based, human; conditions: for percentage of cells in G1 phase: P<0.001
Procedure: Anti-CD19 CAR-expressing T cell compositions were generated from three different healthy donors as described in Example 1. Prior to use, cryopreserved CD4+ and CD8+ engineered cell compositions were thawed and combined at approximately a 1:1 CD4:CD8 ratio.
Following incubation, stimulated CAR T cells were harvested, washed twice in media, and assessed.
The cell cycle phases of CAR T cells treated with the compounds during CAR-specific stimulation with the plate-bound anti-idiotypic antibody were determined using EDU incorporation for two hours after three days of stimulation. For EDU incorporation, CAR T cells were labeled using the Click-iT™ EdU Cell Proliferation Kit (Thermo Fisher Scientific), after which the prepared cells were analyzed by flow cytometry. […] Without wishing to be bound by theory, the accumulation of CAR T cells in G1 phase may account for one of the mechanisms by which the compounds can limit onset of exhaustion during chronic stimulation, as shown in Example 3 below.

[1] = tested on: Granta-519 lymphoma tumor spheroids or A549 tumor spheroids; experiment: Chronic stimulation with rescue treatment during re-challenge with tumor spheroids; format: cell-based
Procedure: Anti-CD19 CAR-expressing T cells, produced as described in Example 1, were chronically stimulated as described in Example 3, but in the absence of Compound C during stimulation. Instead, chronically stimulated CAR T cells were treated with Compound C during re-challenge with Granta-519 lymphoma tumor spheroids or A549 tumor spheroids, after which cytolytic activity, cytokine production, and gene expression of the CAR T Cells was assessed.
FIGS. 4B and 4C show the volume of tumor spheroids co-cultured with anti-CD19 CAR T cells in the presence of Compound C.

[2] = tested on: Raji lymphoma tumor spheroids; experiment: Simulated intermittent dosing during chronic stimulation, re-challenge with tumor spheroids; format: cell-based; conditions: for cytolytic activity of chronically stimulated CAR T cells over four-day re-challenge: P<0.0001
Procedure: The effects of an intermittent Compound C dosing schedule on CAR T cells was assessed.
Anti-CD19 CAR-expressing T cells, produced as described in Example 1, were chronically stimulated as described in Example 3 in the presence of Compound C. During chronic stimulation, Compound C was present at (i) 50 nM for one day and 1 nM for the remaining five days, (ii) 25 nM for one day and 0.5 nM for the remaining five days, (iii) 10 nM for one day and absent for the remaining five days, or (iv) 1 nM for all six days. Stimulated CAR T cells were then re-challenged with Raji lymphoma tumor spheroids in the absence of Compound C, after which cytolytic activity was assessed.
Similar results are shown in FIG. 7B for a separate experiment in which CAR T cells were chronically stimulated for 7 days in the presence or absence of Compound C. In this experiment, Compound C was present at (i) 50 nM for one day and 1 nM for the remaining six days of stimulation, (ii) 25 nM for one day and 0.5 nM for the remaining six days of stimulation, (iii) 10 nM for all seven days of stimulation, or (iv) 1 nM for all seven days of stimulation. Stimulated CAR T cells were then re-challenged with Raji lymphoma tumor spheroids in the absence of Compound C, after which cytolytic activity was assessed over a four-day period. […] The CAR T cells stimulated for seven days in the presence or absence of Compound C were also analyzed for phenotypic T cell memory markers using flow cytometry following chronic stimulation. […] CD27/CCR7 expression, which is a marker for less differentiated, naïve-like T cells, was highest in CAR-expressing CD8 T cells stimulated in the presence of Compound C at 50 nM for one day and 1 nM for the remaining six days of stimulation (* P<0.05).

DC50 (Ikaros; anti-CD19 CAR T cells, 24 hours stimulation with anti-idiotypic antibody, concentration reducing MFI to 50%, average of five donors, read-out: Average EC50 Values (95% Confidence Interval), Ikaros): 0.31 nM
intracellular Ikaros expression (MFI relative to vehicle control) (Ikaros; approximately 10^-1 to 10^4 nM, 24 hours): Concentration-dependent decreases
Ikaros expression compared with Compound 2 or Compound 1 (Ikaros; at all compound concentration levels tested): lower
Compound: O=C1CC[C@H](N2C(=O)c3cccc(NCc4ccc(CN5CC(N6CCOCC6)C5)cc4F)c3C2=O)C(=O)N1 [Compound C, (S)-2-(2,6-dioxopiperidin-3-yl)-4-((2-fluoro-4-((3-morpholinoazetidin-1-yl)methyl)benzyl)amino)isoindoline-1,3-dione]
dose with similar effects on percentage of cells in G1 phase, compared to the other compounds tested (anti-CD19 CAR T cells): ten- or hundred-fold lower dose
percentage of cells in G1 phase (anti-CD19 CAR T cells; 1 nM): increased
percentage of cells in G1 phase (anti-CD19 CAR T cells; 10 nM): increased
effect on percentage of cells in G1 phase compared with the other compounds (anti-CD19 CAR T cells; at all doses tested): most effect on the percentage of cells in G1 phase
tumor volume vs chronically stimulated CAR T cells alone or compound alone ([1]; 1 nM during re-challenge (rescue) with CAR T cells, P<0.0001): more reduced
IFNγ cytokine production five days after re-challenge ([1]; 1 nM during re-challenge (rescue), P<0.0001): highest
tumor volume vs chronically stimulated CAR T cells alone or compound alone ([1]; 10 nM during re-challenge (rescue) with CAR T cells, P<0.0001): more reduced
IFNγ cytokine production five days after re-challenge ([1]; 10 nM during re-challenge (rescue), P<0.05): increased
cytolytic activity of chronically stimulated CAR T cells (tumor cell number during re-challenge) ([2]; 25 nM for one day and 0.5 nM for the remaining five days of stimulation): most increase in cytolytic activity
cytolytic activity of chronically stimulated CAR T cells over four-day re-challenge ([2]; 25 nM for one day and 0.5 nM for the remaining six days of stimulation): improved cytolytic activity
cytolytic activity of chronically stimulated CAR T cells (tumor cell number during re-challenge) ([2]; 50 nM for one day and 1 nM for the remaining five days of stimulation): most increase in cytolytic activity
cytolytic activity of chronically stimulated CAR T cells over four-day re-challenge ([2]; 50 nM for one day and 1 nM for the remaining six days of stimulation): improved cytolytic activity
